Our source for the Stability, MIC and Recovery values is ChEMBL document CHEMBL1128830, “Synthesis and antibacterial activity of FR21818, a new, potent 1-methylcarbapenem” (1995).

Values after ≈ are worked out from the molar mass of the structure shown. A value given as a limit tells only on which side of the number the result lay.

The term MIC denotes the lowest concentration that inhibits growth of the organism. Low readings indicate inhibition by little substance, high ones a need for much substance.

In one assay the target is T1, Dipeptidase 1 (Homo sapiens) (UniProt P16444).
T1 sequence (whole entry): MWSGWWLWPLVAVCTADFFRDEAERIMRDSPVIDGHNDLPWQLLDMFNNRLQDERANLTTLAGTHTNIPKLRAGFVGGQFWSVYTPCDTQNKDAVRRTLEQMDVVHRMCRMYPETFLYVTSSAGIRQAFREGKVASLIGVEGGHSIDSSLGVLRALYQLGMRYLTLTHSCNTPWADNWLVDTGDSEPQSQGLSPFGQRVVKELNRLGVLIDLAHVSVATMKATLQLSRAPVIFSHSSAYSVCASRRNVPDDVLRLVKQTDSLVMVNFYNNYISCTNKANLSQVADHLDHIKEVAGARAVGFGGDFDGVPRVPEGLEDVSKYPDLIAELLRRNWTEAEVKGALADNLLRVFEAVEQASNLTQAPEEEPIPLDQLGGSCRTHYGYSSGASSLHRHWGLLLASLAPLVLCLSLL
The assay is described as follows: In vitro renal dehydropeptidase I (DHP-I) stability relative to meropenem.
Details: not given
As for `C[C@@H](O)[C@H]1C(=O)N2C(C(=O)O)=C(S[C@@H]3CN[C@H](Cc4cc[n+](CCO)n4C)C3)[C@H](C)[C@H]12.[Cl-]`, the Stability came out at 26%.
Same read-out and setting: the value for `C[C@@H](O)[C@H]1C(=O)N2C(C(=O)O)=C(S[C@@H]3CN[C@H](C(=O)N(C)C)C3)[C@H](C)[C@H]12` [MEROPENEM] was 100%; that for `C[C@@H](O)[C@H]1C(=O)N2C(C(=O)[O-])=C(SC3Cn4cnc[n+]4C3)[C@H](C)[C@H]12` (stereo partly specified) [BIAPENEM] was 15.4%.

In another assay the test system is Escherichia coli. The assay is described as follows: Minimum inhibitory concentration required for antibacterial activity against Escherichia coli NIHJ JC-2.
Details: not given
It is filed as functional.
`C[C@@H](O)[C@H]1C(=O)N2C(C(=O)O)=C(S[C@@H]3CN[C@H](Cc4cc[n+](CCO)n4C)C3)[C@H](C)[C@H]12.[Cl-]` returned an MIC of 0.2 µg/mL.
Take `C[C@@H](O)[C@H]1C(=O)N2C(C(=O)O)=C(S[C@@H]3CN[C@H](C(=O)N(C)C)C3)[C@H](C)[C@H]12` [MEROPENEM]: the MIC is less than 0.025 µg/mL.
Same read-out and setting: with `C[C@@H](O)[C@H]1C(=O)N2C(C(=O)[O-])=C(SC3Cn4cnc[n+]4C3)[C@H](C)[C@H]12` (stereo partly specified) [BIAPENEM] the figure was 0.39 µg/mL (≈ 1.11 µM).

Another assay relates to Mus musculus. The assay is described as follows: […] percent urinary recovery in mice after subcutaneous administration at a dose of 20 mg/Kg. The format is functional, organism-based. The conditions noted are these: Urine.
Consider `C[C@@H](O)[C@H]1C(=O)N2C(C(=O)O)=C(S[C@@H]3CN[C@H](Cc4cc[n+](CCO)n4C)C3)[C@H](C)[C@H]12.[Cl-]`, for which the Recovery turned out to be 68.9%.
`C[C@@H](O)[C@H]1C(=O)N2C(C(=O)O)=C(S[C@@H]3CN[C@H](C(=O)N(C)C)C3)[C@H](C)[C@H]12` [MEROPENEM]: the Recovery came to 25%.
As for `C[C@@H](O)[C@H]1C(=O)N2C(C(=O)[O-])=C(SC3Cn4cnc[n+]4C3)[C@H](C)[C@H]12` (stereo partly specified) [BIAPENEM], the Recovery was 70.7%.

Another assay deals with Pseudomonas aeruginosa. As to the kind of experiment: Minimum inhibitory concentration required for antibacterial activity against Pseudomonas aeruginosa 26.
Details: not given
The format is functional.
The compound `C[C@@H](O)[C@H]1C(=O)N2C(C(=O)O)=C(S[C@@H]3CN[C@H](Cc4cc[n+](CCO)n4C)C3)[C@H](C)[C@H]12.[Cl-]` had a minimum inhibitory concentration (MIC) of 0.2 µg/mL.
The same measure, in the same setting: with `C[C@@H](O)[C@H]1C(=O)N2C(C(=O)O)=C(S[C@@H]3CN[C@H](C(=O)N(C)C)C3)[C@H](C)[C@H]12` [MEROPENEM] the figure was 0.2 µg/mL (≈ 0.522 µM); with `C[C@@H](O)[C@H]1C(=O)N2C(C(=O)[O-])=C(SC3Cn4cnc[n+]4C3)[C@H](C)[C@H]12` (stereo partly specified) [BIAPENEM], 0.2 µg/mL (≈ 0.571 µM).

Another assay concerns Proteus vulgaris. As to the kind of experiment: Minimum inhibitory concentration required for antibacterial activity against Proteus vulgaris IAM 1025. It is filed as functional.
Details: not given
For the compound `C[C@@H](O)[C@H]1C(=O)N2C(C(=O)O)=C(S[C@@H]3CN[C@H](Cc4cc[n+](CCO)n4C)C3)[C@H](C)[C@H]12.[Cl-]`, the MIC is 1.56 µg/mL.
Still for that read-out and setting: with `C[C@@H](O)[C@H]1C(=O)N2C(C(=O)O)=C(S[C@@H]3CN[C@H](C(=O)N(C)C)C3)[C@H](C)[C@H]12` [MEROPENEM] the figure was 0.1 µg/mL (≈ 0.261 µM).
Still for that read-out and setting: the value for `C[C@@H](O)[C@H]1C(=O)N2C(C(=O)[O-])=C(SC3Cn4cnc[n+]4C3)[C@H](C)[C@H]12` (stereo partly specified) [BIAPENEM] was 3.13 µg/mL (≈ 8.93 µM).

In the next assay the test system is Staphylococcus aureus. The assay is described as follows: Minimum inhibitory concentration required for antibacterial activity against Staphylococcus aureus 209P JC-1. The format is functional.
Details: not given
`C[C@@H](O)[C@H]1C(=O)N2C(C(=O)O)=C(S[C@@H]3CN[C@H](Cc4cc[n+](CCO)n4C)C3)[C@H](C)[C@H]12.[Cl-]` yielded an MIC of 0.05 µg/mL.
Take `C[C@@H](O)[C@H]1C(=O)N2C(C(=O)O)=C(S[C@@H]3CN[C@H](C(=O)N(C)C)C3)[C@H](C)[C@H]12` [MEROPENEM]: the minimal inhibitory concentration (MIC) was 0.1 µg/mL (≈ 0.261 µM).
On the same count and under the same terms, the value for `C[C@@H](O)[C@H]1C(=O)N2C(C(=O)[O-])=C(SC3Cn4cnc[n+]4C3)[C@H](C)[C@H]12` (stereo partly specified) [BIAPENEM] was 0.1 µg/mL (≈ 0.285 µM).

Another assay has as its system Staphylococcus aureus. As to the kind of experiment: Minimum inhibitory concentration required for antibacterial activity against methicillin-resistant Staphylococcus aureus 3004. The format is functional.
Details: not given
`C[C@@H](O)[C@H]1C(=O)N2C(C(=O)O)=C(S[C@@H]3CN[C@H](Cc4cc[n+](CCO)n4C)C3)[C@H](C)[C@H]12.[Cl-]`: the MIC is 6.25 µg/mL.
In turn, `C[C@@H](O)[C@H]1C(=O)N2C(C(=O)O)=C(S[C@@H]3CN[C@H](C(=O)N(C)C)C3)[C@H](C)[C@H]12` [MEROPENEM] showed a minimum inhibitory concentration (MIC) of 25 µg/mL (≈ 65.2 µM).
`C[C@@H](O)[C@H]1C(=O)N2C(C(=O)[O-])=C(SC3Cn4cnc[n+]4C3)[C@H](C)[C@H]12` (stereo partly specified) [BIAPENEM] returned an MIC of 25 µg/mL (≈ 71.3 µM).
